Experimental data published in patent US20210261538A1, “PROTEIN ARGININE METHYLTRANSFERASE 5 (PRMT5) DEGRADATION / DISRUPTION COMPOUNDS AND METHODS OF USE” (ICAHN SCHOOL OF MEDICINE AT MOUNT SINAI, priority 2018, published 2021).

Legend:
[1] = molecular target: PRMT5 (Homo sapiens, UniProt O14744); test: Western blot of PRMT5 protein levels in MCF-7 cells; assay type: cell-based; parameters: endogenous in cells; host or cells: MCF-7; conditions: for suppressing PRMT5 expression: MCF-7 cells (Examples 90-92)
Description: MCF-7 cells, HEK293T cells and HeLa cells were cultured in Dulbecco's Modified Eagle Medium (DMEM) supplemented with 10% fetal bovine serum (FBS) in 5% CO2 at 37° C. Jurkat cells were cultured in RPMI 1640 medium supplemented with 10% FBS in 5% CO2 at 37° C. H2171 cells were cultured in HITES medium supplemented with 10% FBS in 5% CO2 at 37° C. HCT116 were cultured in McCoy's 5A medium supplemented with 10% fetal bovine serum (FBS) in 5% CO2 at 37° C. All the cells lines were treated with 5 μM (or indicated concentration) of PRMT5 inhibitor (EPZ015666) or degraders, or equivalent volume of DMSO for 6 days (or indicated time points). Fresh compounds were constituted in medium and used for every 2 days. The antibodies used in this study are: PRMT5 antibody (Active Motif), (3-actin antibody (Sigma), SDMA antibody (collaboration with Cell Signaling Technologies). Cell cultures were harvested at the end of compound treatments and applied subjected to western blotting assay. Briefly, cells were washed with PBS and lysed with RIPA lysis buffer for 20 minutes on ice. Then lysates were centrifuged and the clear supernatant were collected. SDS loading buffer was added to the lysates and then the mixture was boiled at 100° C. for 5 minutes. Samples were loaded to 10% or 12% SDS-PAGE gel and ran at 120V for 1.5 hours. Then the proteins were transferred to PVDF membrane and blocked in 5% milk fat at room temperature for 1 hour. Then the membranes were incubated with indicated antibodies at 4° C. overnight. Membranes were washed with PBST buffer three times for 10 minutes each time and incubated with HRP-conjugated (horse radish peroxidase) secondary antibodies at room temperature for 1 hour. Again the membranes were washed with PBST buffer three times for 10 minutes each time. Finally, the indicated proteins on the membranes were visualized with ECL (enhanced chemiluminescence) reagents. MCF-7 cells were treated with DMSO or indicated compounds at 5 μM for 6 days. […] MCF-7 cells were treated with DMSO or indicated serial dilutions of compounds for 6 days. The PRMT5 protein levels were determined by Western blot.

[2] = system: PRMT5 substrates; test: Arginine symmetric dimethylation (SDMA Western blot) in MCF-7 cells; assay type: cell-based; conditions: MCF-7 cells (Examples 90-92)
Description: MCF-7 cells, HEK293T cells and HeLa cells were cultured in Dulbecco's Modified Eagle Medium (DMEM) supplemented with 10% fetal bovine serum (FBS) in 5% CO2 at 37° C. Jurkat cells were cultured in RPMI 1640 medium supplemented with 10% FBS in 5% CO2 at 37° C. H2171 cells were cultured in HITES medium supplemented with 10% FBS in 5% CO2 at 37° C. HCT116 were cultured in McCoy's 5A medium supplemented with 10% fetal bovine serum (FBS) in 5% CO2 at 37° C. All the cells lines were treated with 5 μM (or indicated concentration) of PRMT5 inhibitor (EPZ015666) or degraders, or equivalent volume of DMSO for 6 days (or indicated time points). Fresh compounds were constituted in medium and used for every 2 days. The antibodies used in this study are: PRMT5 antibody (Active Motif), (3-actin antibody (Sigma), SDMA antibody (collaboration with Cell Signaling Technologies). Cell cultures were harvested at the end of compound treatments and applied subjected to western blotting assay. Briefly, cells were washed with PBS and lysed with RIPA lysis buffer for 20 minutes on ice. Then lysates were centrifuged and the clear supernatant were collected. SDS loading buffer was added to the lysates and then the mixture was boiled at 100° C. for 5 minutes. Samples were loaded to 10% or 12% SDS-PAGE gel and ran at 120V for 1.5 hours. Then the proteins were transferred to PVDF membrane and blocked in 5% milk fat at room temperature for 1 hour. Then the membranes were incubated with indicated antibodies at 4° C. overnight. Membranes were washed with PBST buffer three times for 10 minutes each time and incubated with HRP-conjugated (horse radish peroxidase) secondary antibodies at room temperature for 1 hour. Again the membranes were washed with PBST buffer three times for 10 minutes each time. Finally, the indicated proteins on the membranes were visualized with ECL (enhanced chemiluminescence) reagents. MCF-7 cells were treated with EPZ015666 or YS43-22 at indicated compound concentrations (μM) for 6 days.

[3] = system: MTAP-deleted cells; conditions: cited from earlier work
[4] = system: cancer cells; conditions: EPZ015666 alone (Jin, 2016; Kryukov, 2016); cited from earlier work
[5] = system: MCF-7 cells; test: Cell proliferation assay (Cell-Titer Glo) in MCF-7 cells; assay type: cell-based; conditions: 5 μM, 10 days
Description: The same starting number of MCF-7 cells were treated with DMSO, 5 μM EPZ015666 or YS43-22 for up to 10 days. Every two days, fresh compounds were constituted in DMEM medium and added to the cell culture. Relative cell numbers were counted every two days (i.e. day 0, 2, 4, 6, 8 and 10) using Cell-Titer Glo kit (Promega). MCF-7 cells were treated with DMSO, EPZ015666 (5 μM), or YS43-22 (5 μM) for 10 days.

Sequence of PRMT5 (O14744 whole entry): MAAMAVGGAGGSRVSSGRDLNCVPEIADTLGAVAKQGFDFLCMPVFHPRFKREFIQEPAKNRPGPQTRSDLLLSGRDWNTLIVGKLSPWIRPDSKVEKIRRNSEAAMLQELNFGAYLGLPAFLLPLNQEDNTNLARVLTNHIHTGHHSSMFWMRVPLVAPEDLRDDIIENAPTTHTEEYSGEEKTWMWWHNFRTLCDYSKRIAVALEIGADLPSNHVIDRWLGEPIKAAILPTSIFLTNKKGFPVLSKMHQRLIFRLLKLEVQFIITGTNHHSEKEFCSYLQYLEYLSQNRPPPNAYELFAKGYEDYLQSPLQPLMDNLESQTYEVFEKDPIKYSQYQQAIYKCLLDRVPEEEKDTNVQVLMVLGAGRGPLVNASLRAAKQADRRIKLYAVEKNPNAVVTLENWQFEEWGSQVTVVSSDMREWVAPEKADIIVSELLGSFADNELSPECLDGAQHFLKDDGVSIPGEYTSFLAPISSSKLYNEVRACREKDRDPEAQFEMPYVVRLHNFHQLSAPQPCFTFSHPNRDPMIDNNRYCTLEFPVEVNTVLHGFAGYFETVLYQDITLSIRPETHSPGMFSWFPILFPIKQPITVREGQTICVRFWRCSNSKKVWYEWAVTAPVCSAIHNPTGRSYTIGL
Sequence of PRMT5 (Q9BQA1 whole entry partner): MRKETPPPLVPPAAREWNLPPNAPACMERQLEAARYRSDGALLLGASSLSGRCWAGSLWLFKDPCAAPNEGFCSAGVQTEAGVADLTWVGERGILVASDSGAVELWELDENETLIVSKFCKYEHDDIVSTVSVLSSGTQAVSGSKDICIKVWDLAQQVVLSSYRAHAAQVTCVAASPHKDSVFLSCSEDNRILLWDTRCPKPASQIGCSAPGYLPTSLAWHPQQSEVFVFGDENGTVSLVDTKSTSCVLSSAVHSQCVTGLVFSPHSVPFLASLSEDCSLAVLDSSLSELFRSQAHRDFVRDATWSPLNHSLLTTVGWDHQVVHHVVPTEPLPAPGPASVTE

SMILES | suppressing PRMT5 expression [1] | suppressing PRMT5 activity [2] | anti-proliferation effect compared with genetic PRMT5 knockdown [3] | PRMT5 protein levels ([1]; MCF-7 cells, 5 μM, 6 days, Western blot) | inhibition of cancer cell proliferation [4] | cell growth of MCF-7 cells [5] | PRMT5 protein levels, concentration and time dependence ([1]; MCF-7 cells, serial dilutions of compounds, 6 days, Western blot)
Cc1ncsc1-c1ccc(CNC(=O)[C@@H]2C[C@@H](O)CN2C(=O)[C@@H](NC(=O)CCOCCOCCOCCOCCOCCC(=O)N2CC(Nc3cc(C(=O)NC[C@H](O)CN4CCc5ccccc5C4)ncn3)C2)C(C)(C)C)cc1 [YS43-16, N-((S)-3-(3,4-dihydroisoquinolin-2(1H)-yl)-2-hydroxypropyl)-6-((1-((S)-21-((2S,4R)-4-hydroxy-2-((4-(4-methylthiazol-5-yl)benzyl)carbamoyl)pyrrolidine-1-carbonyl)-22,22-dimethyl-19-oxo-4,7,10,13,16-pentaoxa-20-azatricosanoyl)azetidin-3-yl)amino)pyrimidine-4-carboxamide] | especially effective | especially effective | – | – | – | – | –
O=C(NC[C@H](O)CN1CCc2ccccc2C1)c1cc(NC2COC2)ncn1 [EPZ015666, reference compound] | – | – | did not lead to a similar anti-proliferation effect | no effect | failed to optimally inhibit | significantly inhibited | –
Cc1ncsc1-c1ccc(CNC(=O)[C@@H]2C[C@@H](O)CN2C(=O)[C@@H](NC(=O)COCCOCCOCCOCCOCC(=O)N2CC(Nc3cc(C(=O)NC[C@H](O)CN4CCc5ccccc5C4)ncn3)C2)C(C)(C)C)cc1 [YS31-60, N-((S)-3-(3,4-dihydroisoquinolin-2(1H)-yl)-2-hydroxypropyl)-6-((1-((S)-19-((2S,4R)-4-hydroxy-2-((4-(4-methylthiazol-5-yl)benzyl)carbamoyl)pyrrolidine-1-carbonyl)-20,20-dimethyl-17-oxo-3,6,9,12,15-pentaoxa-18-azahenicosanoyl)azetidin-3-yl)amino)pyrimidine-4-carboxamide] | especially effective | especially effective | – | – | – | – | –
O=C1CCC(N2C(=O)c3cccc(NCCCCCCC(=O)N4CC(Nc5cc(C(=O)NC[C@H](O)CN6CCc7ccccc7C6)ncn5)C4)c3C2=O)C(=O)N1 (stereo partly drawn) [YS43-8, N-((S)-3-(3,4-dihydroisoquinolin-2(1H)-yl)-2-hydroxypropyl)-6-((1-(7-((2-(2,6-dioxopiperidin-3-yl)-1,3-dioxoisoindolin-4-yl)amino)heptanoyl)azetidin-3-yl)amino)pyrimidine-4-carboxamide] | especially effective | especially effective | – | – | – | – | concentration- and time-dependent
